B1: PDGF-BB: platelet derived growth factor-BB, agonist in the lower Boyden chamber and MAPK stimulus (protein, UniProt P01127 82-190, looked up)
Platelet-derived growth …: SLGSLTIAEPAMIAECKTRTEVFEISRRLIDRTNANFLVWPPCVEVQRCSGCCNNRNVQCRPTQVQLRPVQVRKIEIVRKKPIFKKATVTLEDHLACKCETVAAARPVT

What was measured:
ERα [1] = experiment: Western blot of ERα protein expression in PSMC; type: cell-based, porcine; conditions: oligomer 10^−6 mol/L, vs PBS-treated cells
Protocol: (§1) The efficiency and specificity of our antisense sequences to block the targeted protein expression were evaluated by Western blot analysis. Culture medium of confluent PAEC and PSMC (100-mm tissue culture plate) were rinsed with Dulbecco's modified eagle medium (DMEM; Life Technologies Inc., Carlsbad, Calif.) and trypsinized (trypsine-EDTA; Life Technologies). Cells were resuspended in DMEM containing 5% of fetal bovine serum and antibiotics (penicillin and streptomycin, Sigma, St-Louis, Mo.), and a cell count was obtained with a Coulter counter Z1 (Coulter Electronics, Luton, UK). Cells were seeded at 1×10^6 cells/100-mm tissue culture plate (Becton-Dickinson, Rutherford, N.J.), stimulated for 24 h in DMEM, 5% FBS, and antibiotics with or without antisense oligomers (10^−7, 5×10^−7, 10^−6 mol/L) and starved for 48 h in DMEM, 0.1% FBS, and antibiotics with or without antisense oligomers (10^−7, 5×10^−7, 10^−6 mol/L daily) for G0 synchronization. LipofectAnime (5 μg/ml, Life Technology Inc) was used as a transfection reagent only on PSMC. The cells were then grown to confluence for 16 h in DMEM, 5% FBS, and antibiotics with or without antisense oligomers (10^−7, 5×10^−7, 10^−6 mol/L) and starved for 7 h in DMEM, 0.1% FBS, and antibiotics with or without antisense oligomers (10^−7, 5×10^−7, 10^−6 mol/L) to induce an up-regulation of the ER expression. Culture medium was removed, and cells were rinsed twice with ice-cold DMEM. Total proteins were prepared by the addition of 500 μl of lysis buffer containing phenylmethylsulfonyl fluoride 1 mM (Sigma), leupeptin 10 μg/ml (Sigma), aprotinin 30 μg/mi (Sigma), and NaVO3 1 mM (Sigma). Plates were incubated at 4° C. for 30 min and scraped, and the protein concentration was determined with a Bio-Rad protein kit (Bio-Rad, Hercules, Calif.). Same protein quantity for each cell type were dissolved in Laemmli's buffer, boiled for 5 min in reducing conditions, separated by a 10% gradient SDS-PAGE (Protean II kit; Bio-Rad), and transblotted onto a 0.45-μm polyvinylidene difluoride membranes (Millipore Corp., Bedford, Mass.). […]

ERα [2] = experiment: Western blot of ERα protein expression in PAEC; type: cell-based, porcine; conditions: oligomer 10^−6 mol/L, vs PBS-treated cells
Protocol: as §1

[3] = tested on: Porcine aortic endothelial cells (PAEC); experiment: Chemotactic assay on PAEC (modified Boyden chamber); type: cell-based; conditions: 5 hrs
Protocol: (§2) Cell migration was evaluated using a modified Boyden 48-well microchamber kit (NeuroProbe, Cabin John, MD.). Near confluent EC and PSMC were rinsed with DMEM and trypsinized. Cells were resuspended in DMEM, 5% FBS, and antibiotics, and a cell count was obtained. […] ER antagonists were added 5 minutes before 17βE. Cells were harvested by trypsinization and resuspended in DMEM, 1% FBS, and antibiotics at a concentration of 5×10^5 cells/ml. […] The two sections of the system were separated by a porous polycarbonate filter (5-μm pores), pre-treated with a gelatine solution (1.5 mg/ml), and assembled. Five hours post incubation at 37° C., the nonmigrated cells were scraped with a plastic policeman, and the migrated cells were stained using a Quick-Diff solution. The filter was then mounted on a glass slide, and migrated cells were counted using a microscope adapted to a video camera to obtain a computer-digitized image.
(§3) Cell migration was evaluated using a modified Boyden 48-well microchamber kit (NeuroProbe, Cabin John, MD.). Near confluent PAEC and PSMC were rinsed with DMEM and trypsinized. Cells were resuspended in DMEM, 5% FBS, and antibiotics, and a cell count was obtained. PAEC and PSMC were seeded at 2.5×10^5 cells/well of 6-well tissue culture plates; stimulated for 24 hours in DMEM, 5% FBS, and antibiotics with or without antisense oligomers (10^−6 mol/L) and starved for 48 hours in DMEM, 0.1% FBS, and antibiotics with or without antisense oligomers (10^−6 mol/L daily) with or without 17βE (10^−8 mol/L). Cells were harvested by trypsinization and resuspended in DMEM, 1% FBS, and antibiotics at a concentration of 5×10^5 cells/mL. Fifty μL of this cell suspension with or without antisense oligomers (10^−6 mol/L) treated with or without 17βE (10^−8 mol/L) was added in the higher-chamber of the modified Boyden chamber apparatus, and the lower chamber was filled with DMEM, 1% FBS, antibiotics plus the desired concentration of agonist either 17βE (10^−8 mol/L) or platelet-derived growth factor-BB (PDGF-BB). The 2 sections of the system were separated by a porous polycarbonate filter (5-μm pores size), pretreated with a gelatine solution (1.5 mg/mL), and assembled. Five hours postincubation at 37° C., the non-migrated cells were scraped with a plastic policeman, and the migrated cells were stained using a Quick-Diff solution (Shandon Inc). The filter was then mounted on a glass slide, and migrated cells were counted using a microscope adapted to a video camera to obtain a computer-digitized image.

ERβ [4] = experiment: Western blot of ERβ protein expression in PAEC; type: cell-based, porcine; conditions: oligomer 10^−6 mol/L, vs PBS-treated cells
Protocol: as §1

ERβ [5] = experiment: Western blot of ERβ protein expression in PSMC; type: cell-based, porcine; conditions: oligomer 10^−6 mol/L, vs PBS-treated cells
Protocol: as §1

[6] = tested on: Porcine smooth muscle cells (PSMC); experiment: Chemotactic assay on PSMC (modified Boyden chamber); type: cell-based; conditions: 5 hours
Protocol: as §2, §3

Molecule	inhibition of basal ERα protein expression (ERα [1])	inhibition of basal ERα protein expression (ERα [2])	inhibition of basal ERβ protein expression (ERβ [4])	inhibition of basal ERβ protein expression (ERβ [5])	further results
SCR-ERα: scrambled phosphothioate sequence, negative control: 5′-TGT AGC TCG GTT CTG TCG-3′ (TGTAGCTCGGTTCTGTCG; DNA, all phosphorothioate, methylation of C not given here)	no suppressing effect	no suppressing effect	–	–	–
bFGF: basic fibroblast growth factor, chemotactic agonist for PAEC	–	–	–	–	induction of PAEC migration as compared to DMEM 1% ([3]; bFGF 1 ng/ml): 46%; induction of PAEC migration as compared to DMEM 1% ([3]; bFGF 5 ng/ml): 124%; induction of PAEC migration as compared to DMEM 1% ([3]; bFGF 10 ng/ml): 114%
AS2-ERβ: antisense oligonucleotide, phosphothioate backbone, targeting porcine ERβ mRNA: 5′-GCT AAA GGA GAG AGG TGT-3′ (antisense GCTAAAGGAGAGAGGTGT; DNA, all phosphorothioate, methylation of C not given here)	–	–	97%	92%	–
SCR-ERβ: scrambled phosphothioate sequence, negative control: 5′-GAG TGG ACG TGA AGA AGT-3′ (GAGTGGACGTGAAGAAGT; DNA, all phosphorothioate, methylation of C not given here)	–	–	no suppressing effect	no suppressing effect	–
AS1-ERβ: antisense oligonucleotide, phosphothioate backbone, targeting porcine ERβ mRNA: 5′-GTA GGA GAC AGG AGA GTT-3′ (antisense GTAGGAGACAGGAGAGTT; DNA, all phosphorothioate, methylation of C not given here)	–	–	90%	84%	–
AS2-ERα: antisense oligonucleotide, phosphothioate backbone, targeting porcine ERα mRNA: 5′-GAC GCT TTG GTG TGT AGG-3′ (antisense GACGCTTTGGTGTGTAGG; DNA, all phosphorothioate, methylation of C not given here)	89%	95%	–	–	–
AS1-ERα: antisense oligonucleotide, phosphothioate backbone, targeting porcine ERα mRNA: 5′-CTC GTT GGC TTG GAT CTG-3′ (antisense CTCGTTGGCTTGGATCTG; DNA, all phosphorothioate, methylation of C not given here)	88%	94%	–	–	–
B1	–	–	–	–	induction of PSMC migration as compared to DMEM 1% ([6]; PDGF-BB 1 ng/ml): 96%; induction of PSMC migration as compared to DMEM 1% ([6]; PDGF-BB 5 ng/ml): 137%; induction of PSMC migration as compared to DMEM 1% ([6]; PDGF-BB 10 ng/mL, Example 2): 199%; induction of PSMC migration as compared to DMEM 1% ([6]; PDGF-BB 10 ng/ml, Example 1): 202%

Source: patent US7235534B2, “Antisense strategy to modulate estrogen receptor response (ER α and/or ER β )” (Institut de Cardiologie de Montreal, priority 2001, dated 2007)
